Legend:
[1] = molecular target: T1, glucosylceramide synthase (Homo sapiens, UniProt Q16739); assay: microsomal assay measuring conversion of ceramide to glucosylceramide by HPLC (GCS IC50); format: biochemical; details: concentration causing 50% inhibition of glucosylceramide synthase activity
T1 construct: Microsomes were isolated from A375 human melanoma cells; endogenous in cells; host or cells: A375 human melanoma cells (microsomal fraction, 100,000 g pellet)
T1 sequence (Q16739 1-394): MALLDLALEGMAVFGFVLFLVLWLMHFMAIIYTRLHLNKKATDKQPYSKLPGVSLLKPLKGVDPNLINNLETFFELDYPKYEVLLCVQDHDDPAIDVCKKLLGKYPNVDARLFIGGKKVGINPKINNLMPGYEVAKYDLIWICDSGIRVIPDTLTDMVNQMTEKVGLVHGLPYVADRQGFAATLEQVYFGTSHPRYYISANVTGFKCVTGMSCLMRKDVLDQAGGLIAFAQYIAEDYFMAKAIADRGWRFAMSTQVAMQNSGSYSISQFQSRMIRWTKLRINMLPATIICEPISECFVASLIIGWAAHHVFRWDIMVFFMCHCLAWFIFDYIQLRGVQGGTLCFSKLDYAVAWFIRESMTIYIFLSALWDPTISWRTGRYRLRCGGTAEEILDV
Outline: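 IC50 is the compound concentration halving glucosylceramide synthase activity. Activity was measured in microsomes, with HPLC quantifying glucosylceramide formed from ceramide.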

[2] = system: GM3 expression on the cell surface, B16 mouse melanoma cells; assay: cell based phenotypic assay, cell surface GM3 by antibody mediated immunofluorescence, B16 (GM3 B16 IC50); details: Mus musculus, B16 mouse melanoma cells; 50% inhibition of GM3 expression on the cell surface; read-out: GM3 B16 IC50
Outline: (§1)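 Both lines undergo the phenotypic GM3 assay, and viability is recorded from that same cell-based run.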

[3] = system: GM3 expression on the cell surface, C32 human melanoma cells; assay: cell based phenotypic assay, cell surface GM3 by antibody mediated immunofluorescence, C32 (GM3 C32 IC50); details: Homo sapiens, C32 human melanoma cells; 50% inhibition of GM3 expression on the cell surface; read-out: GM3 C32 IC50
Outline: as §1

C32 human melanoma cells = assay: cell viability in the C32 cell-based assay (Viability, C32 IC50); details: Homo sapiens, C32, C32 cells; concentration causing 50% cell death; values greater than 10 represent a lack of cell death; read-out: Viability, C32 IC50
Outline: (§2)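 Viability readouts were run alongside the GM3 cell-surface assay in the same B16 and C32 cultures. A figure above 10 indicates no cell death.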

B16 mouse melanoma cells = assay: cell viability in the B16 cell-based assay (Viability, B16 IC50); details: Mus musculus, B16, B16 cells; concentration causing 50% cell death; values greater than 10 represent a lack of cell death; read-out: Viability, B16 IC50
Outline: as §2

SMILES	IC50 [1]	IC50 [2]	IC50 [3]	IC50 (C32 human melanoma cells)	IC50 (B16 mouse melanoma cells)
CC1(NC(=O)C2CCN(c3nccc(-c4ccc(F)cc4)n3)CC2)CN2CCC1CC2 (centres unmarked) [Example 44, 1-(4-(4-Fluorophenyl)pyrimidin-2-yl)-N-(3-methylquinuclidin-3-yl)piperidine-4-carboxamide]	1.24 nM	49.9 nM	0.205 nM	316 nM	9270 nM
O=C(NC1CN2CCC1CC2)C1CCN(c2nccc(-c3ccc(F)cc3)n2)CC1 (centres unmarked) [Example 45, 1-(4-(4-Fluorophenyl)pyrimidin-2-yl)-N-(quinuclidin-3-yl)piperidine-4-carboxamide]	2.67 nM	125 nM	0.457 nM	1000 nM	≥ 10000 nM
CC1(NC(=O)C2CCN(c3cncc(-c4ccc(F)cc4)n3)CC2)CCN2CCC1CC2 (centres unmarked) [Example 46, 1-(6-(4-Fluorophenyl)pyrazin-2-yl)-N-(4-methyl-1-azabicyclo[3.2.2]nonan-4-yl)piperidine-4-carboxamide]	2.79 nM	76.6 nM	0.425 nM	316 nM	7310 nM
CC1(NC(=O)C2CCN(c3cncc(-c4ccc(F)cc4)n3)CC2)CN2CCC1CC2 (centres unmarked) [Example 49, 1-(6-(4-Fluorophenyl)pyrazin-2-yl)-N-(3-methylquinuclidin-3-yl)piperidine-4-carboxamide]	4.1 nM	145 nM	0.822 nM	1000 nM	8160 nM
CC1(NC(=O)C2CCN(c3ccnc(-c4ccc(F)cc4)n3)CC2)CCN2CCC1CC2 (centres unmarked) [Example 51, 1-(2-(4-Fluorophenyl)pyrimidin-4-yl)-N-(4-methyl-1-azabicyclo[3.2.2]nonan-4-yl)piperidine-4-carboxamide]	46.6 nM	335 nM	3.88 nM	3160 nM	8260 nM
CC1(NC(=O)C2CCN(c3ncc(F)c(-c4ccc(F)cc4)n3)CC2)CN2CCC1CC2 (centres unmarked) [Example 54, 1-(5-Fluoro-4-(4-fluorophenyl)pyrimidin-2-yl)-N-(3-methylquinuclidin-3-yl)piperidine-4-carboxamide]	0.734 nM	106 nM	0.0902 nM	8040 nM	5130 nM
CC1(NC(=O)C2CCN(c3ncc(F)c(-c4ccc(F)cc4)n3)CC2)CCN2CCC1CC2 (centres unmarked) [Example 55, 1-(5-Fluoro-4-(4-fluorophenyl)pyrimidin-2-yl)-N-(4-methyl-1-azabicyclo[3.2.2]nonan-4-yl)piperidine-4-carboxamide]	0.736 nM	47.5 nM	0.0479 nM	100 nM	3740 nM
COCCOc1ccc(-c2nc(N3CCC(C(=O)NC4(C)CCN5CCC4CC5)CC3)ncc2F)cc1 (centres unmarked) [Example 56, 1-(5-Fluoro-4-(4-(2-methoxyethoxy)phenyl)pyrimidin-2-yl)-N-(4-methyl-1-azabicyclo[3.2.2]nonan-4-yl)piperidine-4-carboxamide]	4.63 nM	20.9 nM	0.173 nM	7420 nM	6760 nM
COCCOCc1ccc(-c2nc(N3CCC(C(=O)NC4(C)CCN5CCC4CC5)CC3)ncc2F)cc1 (centres unmarked) [Example 58, 1-(5-Fluoro-4-(4-((2-methoxyethoxy)methyl)phenyl)pyrimidin-2-yl)-N-(4-methyl-1-azabicyclo[3.2.2]nonan-4-yl)piperidine-4-carboxamide]	3.39 nM	40.5 nM	0.17 nM	1000 nM	≥ 10000 nM
COCCOCc1ccc(-c2nc(N3CCC(C(=O)NC4(C)CN5CCC4CC5)CC3)ncc2F)cc1 (centres unmarked) [Example 59, 1-(5-Fluoro-4-(4-((2-methoxyethoxy)methyl)phenyl)pyrimidin-2-yl)-N-(3-methylquinuclidin-3-yl)piperidine-4-carboxamide]	9.18 nM	152 nM	0.339 nM	464 nM	≥ 10000 nM
COCc1ccc(-c2nc(N3CCC(C(=O)NC4(C)CN5CCC4CC5)CC3)ncc2F)cc1 (centres unmarked) [Example 61, 1-(5-Fluoro-4-(4-(methoxymethyl)phenyl)pyrimidin-2-yl)-N-(3-methylquinuclidin-3-yl)piperidine-4-carboxamide]	1.41 nM	52.4 nM	0.13 nM	46.4 nM	8540 nM
COCCCOc1ccc(-c2nc(N3CCC(C(=O)NC4(C)CCN5CCC4CC5)CC3)ncc2F)cc1 (centres unmarked) [Example 62, 1-(5-Fluoro-4-(4-(3-methoxypropoxy)phenyl)pyrimidin-2-yl)-N-(4-methyl-1-azabicyclo[3.2.2]nonan-4-yl)piperidine-4-carboxamide]	0.931 nM	10.5 nM	0.109 nM	100 nM	2390 nM
COCCCOc1ccc(-c2nc(N3CCC(C(=O)NC4(C)CN5CCC4CC5)CC3)ncc2F)cc1 (centres unmarked) [Example 63, 1-(5-Fluoro-4-(4-(3-methoxypropoxy)phenyl)pyrimidin-2-yl)-N-(3-methylquinuclidin-3-yl)piperidine-4-carboxamide]	0.586 nM	40.8 nM	0.0988 nM	100 nM	3520 nM
CC1(NC(=O)C2CCN(c3nccc(-c4ccc(F)c(F)c4)n3)CC2)CCN2CCC1CC2 (centres unmarked) [Example 64, 1-(4-(3,4-Difluorophenyl)pyrimidin-2-yl)-N-(4-methyl-1-azabicyclo[3.2.2]nonan-4-yl)piperidine-4-carboxamide]	1.7 nM	32.9 nM	0.062 nM	5530 nM	3420 nM

Second part, led by results:

IC50 [1]	IC50 [2]	IC50 [3]	SMILES	IC50 (C32 human melanoma cells)	IC50 (B16 mouse melanoma cells)
1800 nM	7240 nM	126 nM	CC1(NC(=O)C2CCN(c3cccc(-c4ncccn4)c3)CC2)CCN2CCC1CC2 (centres unmarked) [Example 39, N-(4-Methyl-1-azabicyclo[3.2.2]nonan-4-yl)-1-(3-(pyrimidin-2-yl)phenyl)piperidine-4-carboxamide]	3160 nM	≥ 10000 nM
291 nM	5500 nM	15.2 nM	CC1(NC(=O)C2CCN(c3cccc(-c4cncnc4)c3)CC2)CCN2CCC1CC2 (centres unmarked) [Example 40, N-(4-Methyl-1-azabicyclo[3.2.2]nonan-4-yl)-1-(3-(pyrimidin-5-yl)phenyl)piperidine-4-carboxamide]	1000 nM	71.3 nM
1.14 nM	9.7 nM	0.124 nM	CC1(NC(=O)C2CCN(c3nccc(-c4ccc(F)cc4)n3)CC2)CCN2CCC1CC2 (centres unmarked) [Example 41, 1-(4-(4-Fluorophenyl)pyrimidin-2-yl)-N-(4-methyl-1-azabicyclo[3.2.2]nonan-4-yl)piperidine-4-carboxamide]	20 nM	6440 nM
32.5 nM	162 nM	0.708 nM	CC1(NC(=O)C2CCN(c3ncnc(-c4ccc(F)cc4)n3)CC2)CCN2CCC1CC2 (centres unmarked) [Example 50, 1-(4-(4-Fluorophenyl)-1,3,5-triazin-2-yl)-N-(4-methyl-1-azabicyclo[3.2.2]nonan-4-yl)piperidine-4-carboxamide]	3160 nM	≥ 10000 nM
503 nM	1060 nM	337 nM	CC1(NC(=O)N2CCC(c3cccc(-c4ccccc4)c3)CC2)CCN2CCC1CC2 (centres unmarked) [Example 52, 4-([1,1′-Biphenyl]-3-yl)-N-(4-methyl-1-azabicyclo[3.2.2]nonan-4-yl)piperidine-1-carboxamide]	8640 nM	7360 nM
2210 nM	1240 nM	175 nM	CC1(NC(=O)N2CCC(c3ccc(-c4ccccc4)cc3)CC2)CCN2CCC1CC2 (centres unmarked) [Example 53, 4-([1,1′-Biphenyl]-4-yl)-N-(4-methyl-1-azabicyclo[3.2.2]nonan-4-yl)piperidine-1-carboxamide]	6290 nM	6740 nM
1.68 nM	15.5 nM	0.1 nM	COCc1ccc(-c2nc(N3CCC(C(=O)NC4(C)CCN5CCC4CC5)CC3)ncc2F)cc1 (centres unmarked) [Example 60, 1-(5-Fluoro-4-(4-(methoxymethyl)phenyl)pyrimidin-2-yl)-N-(4-methyl-1-azabicyclo[3.2.2]nonan-4-yl)piperidine-4-carboxamide]	46.4 nM	3500 nM
1.31 nM	56.1 nM	0.0934 nM	CC1(NC(=O)C2CCN(c3nccc(-c4cc(F)cc(F)c4)n3)CC2)CCN2CCC1CC2 (centres unmarked) [Example 65, 1-(4-(3,5-Difluorophenyl)pyrimidin-2-yl)-N-(4-methyl-1-azabicyclo[3.2.2]nonan-4-yl)piperidine-4-carboxamide]	215 nM	4140 nM
